Experimental data: PMC8550792, “Evolution of kinase polypharmacology across HSP90 drug discovery” (Cell Chemical Biology, 2021)
Where “and” joins values, the source holds several entries; their conditions need not be identical. Equal entries are not always repeated. Where two headings read alike, the source gives them in different places.

Assays:
[1] = biological target: T1, PDK4/PDKH4 (Homo sapiens, UniProt Q16654); experiment: HotSpot in vitro kinase radiometric assay; assay type: biochemical; conditions: read-out: % inhibition at 10 uM: PDK4; 10 μM; Fig 6C median ± standard deviation (n = 2)
T1 construct: purchased Reaction Biology (HotSpot contract assay)
Procedure, shortened: (§1)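 Inhibition of catalytic activity is quantified by direct detection of the true phosphorylated product. Each compound is incubated with enzyme, substrate, cofactors and radioisotope-labelled ATP, and the mixture is applied to product-binding filters.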

[2] = biological target: T2, LYN B (Homo sapiens, UniProt P07948); experiment: HotSpot in vitro kinase radiometric assay; assay type: biochemical; conditions: read-out: % inhibition at 10 uM: LYN B; 10 μM; Fig 6C median ± standard deviation (n = 2)
T2 construct: purchased Reaction Biology (HotSpot contract assay)
Procedure, shortened: as §1

[3] = biological target: T3, c-Src (Homo sapiens, UniProt P12931); experiment: HotSpot in vitro kinase radiometric assay; assay type: biochemical; conditions: read-out: % inhibition at 10 uM: SRC; 10 μM; Fig 6C median ± standard deviation (n = 2)
T3 construct: purchased Reaction Biology (HotSpot contract assay)
Procedure, shortened: as §1

[4] = biological target: T4, BLK (Homo sapiens, UniProt P51451); experiment: HotSpot in vitro kinase radiometric assay; assay type: biochemical; conditions: read-out: % inhibition at 10 uM: BLK; 10 μM; Fig 6C median ± standard deviation (n = 2)
T4 construct: purchased Reaction Biology (HotSpot contract assay)
Procedure, shortened: as §1

[5] = biological target: T5, PDK2/PDHK2 (Homo sapiens, UniProt Q15119); experiment: HotSpot in vitro kinase radiometric assay; assay type: biochemical; conditions: read-out: % inhibition at 10 uM: PDK2; 10 μM; Fig 6C median ± standard deviation (n = 2)
T5 construct: purchased Reaction Biology (HotSpot contract assay)
Procedure, shortened: as §1

[6] = tested on: HSP90AA1; conditions: average of reported values; ref ChEMBL23 (accessed: 23/08/2018); cited from earlier work
[7] = biological target: T6, TRKC (Homo sapiens, UniProt Q16288); experiment: HotSpot in vitro kinase radiometric assay; assay type: biochemical; conditions: read-out: % inhibition at 10 uM: TRKC; 10 μM; Fig 6C median ± standard deviation (n = 2)
T6 construct: purchased Reaction Biology (HotSpot contract assay)

[8] = biological target: T7, YES/YES1 (Homo sapiens, UniProt P07947); experiment: HotSpot in vitro kinase radiometric assay; assay type: biochemical; conditions: read-out: % inhibition at 10 uM: YES; 10 μM; Fig 6C median ± standard deviation (n = 2)
T7 construct: purchased Reaction Biology (HotSpot contract assay)

[9] = tested on: 382 unique human kinases; experiment: biochemical; assay type: biochemical
[10] = biological target: T8, 382 unique human kinases (Homo sapiens, UniProt P24941); experiment: biochemical; assay type: biochemical; conditions: 10 uM; for remaining activity at 10 µM: read-out: % Enzyme Activity (relative to DMSO controls)
T8 construct: purchased Reaction Biology (HotSpot contract assay)

[11] = biological target: T9, 382 unique human kinases (Homo sapiens, UniProt Q00534); experiment: biochemical; assay type: biochemical; conditions: CDK6/cyclin D3, 10 uM
T9 construct: purchased Reaction Biology (HotSpot contract assay)
T9 sequence (Q00534 whole entry): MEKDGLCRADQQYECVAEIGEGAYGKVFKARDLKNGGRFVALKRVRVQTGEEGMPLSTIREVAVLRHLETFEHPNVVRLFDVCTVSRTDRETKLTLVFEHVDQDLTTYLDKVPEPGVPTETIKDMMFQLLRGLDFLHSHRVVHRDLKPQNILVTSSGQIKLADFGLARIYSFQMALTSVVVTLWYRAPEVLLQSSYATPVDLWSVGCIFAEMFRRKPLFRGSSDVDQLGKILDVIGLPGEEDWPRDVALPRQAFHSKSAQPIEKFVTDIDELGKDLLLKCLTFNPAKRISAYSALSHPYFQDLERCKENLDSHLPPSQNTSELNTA

[12] = biological target: T10, 382 unique human kinases (Homo sapiens, UniProt P50750); experiment: biochemical; assay type: biochemical; conditions: CDK9/cyclin T1, 10 uM
T10 construct: purchased Reaction Biology (HotSpot contract assay)
T10 sequence (P50750 whole entry): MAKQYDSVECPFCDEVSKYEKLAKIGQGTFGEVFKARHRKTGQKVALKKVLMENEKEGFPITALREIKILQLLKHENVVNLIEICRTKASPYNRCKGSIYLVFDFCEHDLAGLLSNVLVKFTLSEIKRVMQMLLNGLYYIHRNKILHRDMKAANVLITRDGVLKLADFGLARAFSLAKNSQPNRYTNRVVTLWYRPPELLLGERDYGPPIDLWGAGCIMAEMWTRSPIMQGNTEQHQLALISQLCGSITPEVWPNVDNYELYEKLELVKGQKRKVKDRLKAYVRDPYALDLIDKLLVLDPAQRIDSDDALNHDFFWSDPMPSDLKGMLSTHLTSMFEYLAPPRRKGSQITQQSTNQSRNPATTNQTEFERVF

[13] = biological target: T11, 382 unique human kinases (Homo sapiens, UniProt P11802); experiment: biochemical; assay type: biochemical; conditions: CDK4/cyclin D3, [ATP] 5 µM, compound 10 uM
T11 construct: purchased Reaction Biology (HotSpot contract assay)
T11 sequence (P11802 whole entry): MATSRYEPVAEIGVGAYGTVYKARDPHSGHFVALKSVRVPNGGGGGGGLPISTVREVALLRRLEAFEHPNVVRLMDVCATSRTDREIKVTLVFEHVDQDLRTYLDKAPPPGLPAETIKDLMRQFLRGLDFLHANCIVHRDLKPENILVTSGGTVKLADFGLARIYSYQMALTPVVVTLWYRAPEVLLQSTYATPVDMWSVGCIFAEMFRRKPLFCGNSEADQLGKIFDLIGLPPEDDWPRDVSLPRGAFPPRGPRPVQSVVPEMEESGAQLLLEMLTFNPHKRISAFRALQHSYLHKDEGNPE

[14] = biological target: T12, TRKA (Homo sapiens, UniProt P04629); experiment: HotSpot in vitro kinase radiometric assay; assay type: biochemical; conditions: read-out: % inhibition at 10 uM: TRKA; 10 μM; Fig 6C median ± standard deviation (n = 2)
T12 construct: purchased Reaction Biology (HotSpot contract assay)
Procedure, shortened: as §1

[15] = biological target: T13, PASK (Homo sapiens, UniProt Q96RG2); experiment: HotSpot in vitro kinase radiometric assay; assay type: biochemical; conditions: read-out: % inhibition at 10 uM: PASK; 10 μM; Fig 6C median ± standard deviation (n = 2)
T13 construct: purchased Reaction Biology (HotSpot contract assay)
Procedure, shortened: as §1

[16] = biological target: T14, LCK (Homo sapiens, UniProt P06239); experiment: HotSpot in vitro kinase radiometric assay; assay type: biochemical; conditions: read-out: % inhibition at 10 uM: LCK; 10 μM; Fig 6C median ± standard deviation (n = 2)
T14 construct: purchased Reaction Biology (HotSpot contract assay)

[17] = biological target: ABL1 (Homo sapiens, UniProt P00519); experiment: HotSpot in vitro kinase radiometric assay; assay type: biochemical; design: purchased Reaction Biology (HotSpot contract assay)
Chain of ABL1 (P00519 whole entry): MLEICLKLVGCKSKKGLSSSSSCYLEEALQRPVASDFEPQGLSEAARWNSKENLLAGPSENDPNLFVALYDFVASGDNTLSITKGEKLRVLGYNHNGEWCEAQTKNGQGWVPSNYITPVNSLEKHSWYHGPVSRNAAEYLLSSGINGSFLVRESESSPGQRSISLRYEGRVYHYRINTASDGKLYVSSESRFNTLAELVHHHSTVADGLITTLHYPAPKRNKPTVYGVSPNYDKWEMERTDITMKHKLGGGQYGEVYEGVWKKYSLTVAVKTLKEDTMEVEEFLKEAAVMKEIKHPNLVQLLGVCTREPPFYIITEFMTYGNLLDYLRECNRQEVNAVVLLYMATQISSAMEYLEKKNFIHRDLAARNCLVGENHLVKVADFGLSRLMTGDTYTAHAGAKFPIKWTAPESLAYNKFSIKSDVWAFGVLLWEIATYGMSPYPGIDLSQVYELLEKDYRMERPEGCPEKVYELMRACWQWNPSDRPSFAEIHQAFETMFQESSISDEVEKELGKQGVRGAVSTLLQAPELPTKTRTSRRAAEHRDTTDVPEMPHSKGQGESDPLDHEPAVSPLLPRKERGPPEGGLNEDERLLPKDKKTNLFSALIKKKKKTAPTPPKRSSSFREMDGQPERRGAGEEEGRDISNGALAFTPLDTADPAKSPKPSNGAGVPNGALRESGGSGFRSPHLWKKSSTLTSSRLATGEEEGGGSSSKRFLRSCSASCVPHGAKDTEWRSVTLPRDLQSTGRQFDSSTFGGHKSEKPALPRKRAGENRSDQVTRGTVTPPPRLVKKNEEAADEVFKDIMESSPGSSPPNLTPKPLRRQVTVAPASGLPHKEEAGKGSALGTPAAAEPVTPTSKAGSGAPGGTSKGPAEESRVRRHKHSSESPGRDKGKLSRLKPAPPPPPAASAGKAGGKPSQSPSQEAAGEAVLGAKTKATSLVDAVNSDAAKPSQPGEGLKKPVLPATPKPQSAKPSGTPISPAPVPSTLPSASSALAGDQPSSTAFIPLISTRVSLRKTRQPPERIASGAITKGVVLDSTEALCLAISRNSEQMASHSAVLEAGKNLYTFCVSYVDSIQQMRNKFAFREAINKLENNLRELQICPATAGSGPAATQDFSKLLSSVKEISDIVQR

[18] = biological target: T15, PEAK1 (Homo sapiens, UniProt Q9H792); experiment: HotSpot in vitro kinase radiometric assay; assay type: biochemical; conditions: Fig 6C median ± standard deviation (n = 2)
T15 construct: purchased Reaction Biology (HotSpot contract assay)
T15 sequence (Q9H792 whole entry): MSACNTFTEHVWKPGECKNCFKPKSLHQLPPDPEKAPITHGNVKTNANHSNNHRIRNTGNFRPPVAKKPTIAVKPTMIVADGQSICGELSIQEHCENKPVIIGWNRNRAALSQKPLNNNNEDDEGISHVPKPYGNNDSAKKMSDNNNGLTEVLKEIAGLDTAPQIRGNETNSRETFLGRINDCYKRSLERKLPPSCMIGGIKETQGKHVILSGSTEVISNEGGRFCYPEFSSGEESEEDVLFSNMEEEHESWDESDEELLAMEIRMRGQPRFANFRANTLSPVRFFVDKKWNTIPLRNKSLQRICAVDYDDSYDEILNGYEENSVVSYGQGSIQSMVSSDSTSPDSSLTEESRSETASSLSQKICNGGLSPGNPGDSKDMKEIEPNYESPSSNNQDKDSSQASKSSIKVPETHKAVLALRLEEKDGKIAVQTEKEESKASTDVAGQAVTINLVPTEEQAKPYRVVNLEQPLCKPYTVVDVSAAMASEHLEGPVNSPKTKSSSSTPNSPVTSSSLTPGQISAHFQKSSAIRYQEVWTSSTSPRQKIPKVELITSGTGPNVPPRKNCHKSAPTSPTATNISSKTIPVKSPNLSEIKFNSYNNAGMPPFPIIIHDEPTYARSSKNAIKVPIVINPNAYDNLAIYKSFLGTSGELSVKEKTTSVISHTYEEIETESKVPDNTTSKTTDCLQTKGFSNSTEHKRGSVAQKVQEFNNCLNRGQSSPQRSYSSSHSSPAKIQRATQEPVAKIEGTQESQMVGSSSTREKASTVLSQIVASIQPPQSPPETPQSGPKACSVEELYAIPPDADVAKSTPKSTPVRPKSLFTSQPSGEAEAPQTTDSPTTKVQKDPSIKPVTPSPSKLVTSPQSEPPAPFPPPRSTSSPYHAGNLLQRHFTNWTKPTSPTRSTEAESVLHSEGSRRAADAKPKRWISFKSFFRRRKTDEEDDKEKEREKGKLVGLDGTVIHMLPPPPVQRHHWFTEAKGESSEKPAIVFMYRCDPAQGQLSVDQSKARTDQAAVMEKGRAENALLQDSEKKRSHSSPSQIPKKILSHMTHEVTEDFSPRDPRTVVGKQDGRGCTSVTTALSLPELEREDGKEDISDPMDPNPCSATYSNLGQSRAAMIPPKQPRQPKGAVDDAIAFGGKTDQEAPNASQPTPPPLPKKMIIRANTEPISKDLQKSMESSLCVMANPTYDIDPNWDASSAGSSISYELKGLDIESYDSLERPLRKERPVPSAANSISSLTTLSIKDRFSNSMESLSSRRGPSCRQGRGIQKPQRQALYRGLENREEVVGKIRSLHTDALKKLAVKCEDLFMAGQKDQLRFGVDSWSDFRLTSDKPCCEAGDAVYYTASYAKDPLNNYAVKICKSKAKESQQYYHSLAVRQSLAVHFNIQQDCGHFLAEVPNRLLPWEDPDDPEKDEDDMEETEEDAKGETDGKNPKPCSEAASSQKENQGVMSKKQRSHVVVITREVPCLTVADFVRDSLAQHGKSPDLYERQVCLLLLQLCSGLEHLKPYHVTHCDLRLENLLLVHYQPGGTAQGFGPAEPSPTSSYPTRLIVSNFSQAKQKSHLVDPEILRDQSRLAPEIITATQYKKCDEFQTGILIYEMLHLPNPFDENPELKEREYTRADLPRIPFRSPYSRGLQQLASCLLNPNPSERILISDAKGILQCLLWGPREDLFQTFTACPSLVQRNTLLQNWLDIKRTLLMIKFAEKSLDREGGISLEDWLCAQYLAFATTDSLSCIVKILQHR

[19] = biological target: T16, ABL2/ARG (Homo sapiens, UniProt P42684); experiment: HotSpot in vitro kinase radiometric assay; assay type: biochemical
T16 construct: purchased Reaction Biology (HotSpot contract assay)
T16 sequence (P42684 whole entry): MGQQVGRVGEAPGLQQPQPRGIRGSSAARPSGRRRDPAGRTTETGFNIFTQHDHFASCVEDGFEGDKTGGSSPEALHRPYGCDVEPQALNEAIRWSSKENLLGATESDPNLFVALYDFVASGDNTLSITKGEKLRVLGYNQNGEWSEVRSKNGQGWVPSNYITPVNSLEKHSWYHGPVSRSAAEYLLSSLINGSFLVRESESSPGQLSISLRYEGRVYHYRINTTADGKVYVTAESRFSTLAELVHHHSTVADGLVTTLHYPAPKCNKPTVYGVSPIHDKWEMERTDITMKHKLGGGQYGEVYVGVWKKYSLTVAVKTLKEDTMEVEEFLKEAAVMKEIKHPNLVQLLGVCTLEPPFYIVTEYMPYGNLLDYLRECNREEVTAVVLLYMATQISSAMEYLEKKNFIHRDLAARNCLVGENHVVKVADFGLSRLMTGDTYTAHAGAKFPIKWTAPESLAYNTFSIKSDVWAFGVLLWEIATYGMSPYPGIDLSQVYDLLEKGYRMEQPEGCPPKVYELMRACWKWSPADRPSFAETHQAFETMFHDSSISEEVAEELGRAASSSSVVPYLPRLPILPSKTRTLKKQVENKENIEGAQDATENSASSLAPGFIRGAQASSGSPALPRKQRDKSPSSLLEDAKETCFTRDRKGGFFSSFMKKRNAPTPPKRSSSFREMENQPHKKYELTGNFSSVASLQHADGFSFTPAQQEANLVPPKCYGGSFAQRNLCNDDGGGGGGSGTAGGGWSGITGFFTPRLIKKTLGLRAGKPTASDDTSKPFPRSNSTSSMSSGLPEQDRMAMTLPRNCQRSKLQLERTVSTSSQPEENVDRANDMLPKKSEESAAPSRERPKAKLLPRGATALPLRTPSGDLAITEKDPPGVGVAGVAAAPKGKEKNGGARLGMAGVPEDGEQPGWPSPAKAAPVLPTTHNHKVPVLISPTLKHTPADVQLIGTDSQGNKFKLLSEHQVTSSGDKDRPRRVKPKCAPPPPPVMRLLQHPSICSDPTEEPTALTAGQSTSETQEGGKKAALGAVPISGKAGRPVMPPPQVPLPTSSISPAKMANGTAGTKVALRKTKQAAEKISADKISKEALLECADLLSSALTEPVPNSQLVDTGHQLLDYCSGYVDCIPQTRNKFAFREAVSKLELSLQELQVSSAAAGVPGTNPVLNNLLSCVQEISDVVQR

[20] = biological target: DDR1 (Homo sapiens, UniProt Q08345); experiment: HotSpot in vitro kinase radiometric assay; assay type: biochemical; design: purchased Reaction Biology (HotSpot contract assay)
[21] = tested on: HSP90AB1; design: method as in ChEMBL23 (accessed: 23/08/2018); conditions: average of reported values; ref ChEMBL23 (accessed: 23/08/2018); cited from earlier work
[22] = read-out: % Enzyme Activity (relative to DMSO controls)
[23] = 10 μM, Fig 6C median ± standard deviation (n = 2)

Q: Which inhibition at 10 µM [1] does the source give for CCNC(=O)c1noc(-c2cc(C(C)C)c(O)cc2O)c1-c1ccc(CN2CCOCC2)cc1 [Luminespib] here?
A: 71 ± 2%

Q: What about the inhibition at 10 µM [2] of the same compound?
A: 74 ± 1%

Q: And the inhibition at 10 µM [3]?
A: 65 ± 2%

Q: What about the inhibition at 10 µM [4] of the same compound?
A: 62 ± 1%

Q: What about the inhibition at 10 µM [5] of the same compound?
A: 78 ± 1%

Q: And the “pActivity, HSP90AA1” value [6]?
A: 8.01

Q: And the inhibition at 10 µM [7]?
A: 4 ± 2%

Q: And the inhibition at 10 µM [8]?
A: 49 ± 2%

Q: And the “number of kinase off-targets inhibited by more than 50% at 10 μM” value ([9]; 10 μM)?
A: 14

Q: And the “number of native kinases inhibited by more than 85% at 10 μM” value ([9]; 10 μM)?
A: two

Q: And the “% Enzyme Activity (relative to DMSO controls)” value ([9]; ALK (T1151-L1152insT), [ATP] 20 µM, compound 10 uM)?
A: 108.18% and 107.06%

Q: What about the “% Enzyme Activity (relative to DMSO controls)” value ([9]; ALK-TPM3, [ATP] 15 µM, compound 10 uM) of the same compound?
A: 105.28% and 105.22%

Q: And the “% Enzyme Activity (relative to DMSO controls)” value ([9]; BRAF (T599_V600insT), 10 uM)?
A: 98.93% and 97.05%

Q: And the “% Enzyme Activity (relative to DMSO controls)” value ([9]; BRAF-FAM131B (Fex2Bex9), 10 uM)?
A: 111.02% and 110.19%

Q: What about the “% Enzyme Activity (relative to DMSO controls)” value ([9]; EGFR (d746-750/C797S), 10 uM) of the same compound?
A: 93.95% and 93.48%

Q: What about the “% Enzyme Activity (relative to DMSO controls)” value ([9]; ERBB2 (V777_G778insCG), 10 uM) of the same compound?
A: 103.65% and 102.78%

Q: And the “% Enzyme Activity (relative to DMSO controls)” value ([9]; FGFR1OP-FGFR1, [ATP] 10 µM, compound 10 uM)?
A: 103.05% and 103.02%

Q: And the “% Enzyme Activity (relative to DMSO controls)” value ([9]; FLT3 (ITD), [ATP] 30 µM, compound 10 uM)?
A: 91.11% and 89.12%

Q: What about the “In vitro screening: kinases hit / kinases screened” value ([9]; Figure 3) of the same compound?
A: 2/382

Q: And the “% Enzyme Activity (relative to DMSO controls)” value ([9]; KSR1 (A635F), 10 uM)?
A: 100.08% and 96.91%

Q: And the “% Enzyme Activity (relative to DMSO controls)” value ([9]; LYN B, [ATP] 20 µM, compound 10 uM)?
A: 26.10% and 25.22%

Q: What about the “% Enzyme Activity (relative to DMSO controls)” value ([9]; PKCb2, 10 uM) of the same compound?
A: 102.18% and 101.94%

Q: What about the “% Enzyme Activity (relative to DMSO controls)” value ([9]; ROS1-GOPC, [ATP] 15 µM, compound 10 uM) of the same compound?
A: 101.12% and 99.93%

Q: What about the “% Enzyme Activity (relative to DMSO controls)” value ([9]; TRKA-TFG (TRK-T3), [ATP] 20 µM, compound 10 uM) of the same compound?
A: 85.72% and 85.69%

Q: And the “% Enzyme Activity (relative to DMSO controls)” value ([9]; TRKA-TPM3, [ATP] 50 µM, compound 10 uM)?
A: 90.74% and 88.03%

Q: What about the “% Enzyme Activity (relative to DMSO controls)” value ([9]; TRKA-TPR, [ATP] 50 µM, compound 10 uM) of the same compound?
A: 90.04% and 89.94%

Q: What about the “% Enzyme Activity (relative to DMSO controls)” value ([9]; c-Kit (d557-558), [ATP] 10 µM, compound 10 uM) of the same compound?
A: 63.45% and 62.37%

Q: What about the “number of off-target kinases experimentally identified, In vitro binding (KinomeSCAN)” value ([9]; cutoff of >85% inhibition at 10 μM, luminespib and ganetespib large kinome panel, others 16-kinase panel) of the same compound?
A: 2

Q: And the “% Enzyme Activity (relative to DMSO controls)” value ([10]; CDK2/Cyclin A1)?
A: 96.40%

Q: What about the remaining activity at 10 µM ([10]; CDK2/Cyclin A1) of the same compound?
A: 97.4%

Q: And the “% Enzyme Activity (relative to DMSO controls)” value ([10]; CDK2/cyclin E)?
A: 98.18%

Q: What about the remaining activity at 10 µM ([10]; CDK2/cyclin E) of the same compound?
A: 101%

Q: What about the “% Enzyme Activity (relative to DMSO controls)” value [11] of the same compound?
A: 112.00%

Q: And the remaining activity at 10 µM [11, 22]?
A: 113%

Q: What about the “% Enzyme Activity (relative to DMSO controls)” value [12] of the same compound?
A: 103.10%

Q: What about the remaining activity at 10 µM [12, 22] of the same compound?
A: 105%

Q: What about the “% Enzyme Activity (relative to DMSO controls)” value [13] of the same compound?
A: 101.56%

Q: And the remaining activity at 10 µM [13, 22]?
A: 102%

Q: And the inhibition at 10 µM [14]?
A: -1%

Q: And the inhibition at 10 µM [15]?
A: 1%

Q: And the inhibition at 10 µM [16]?
A: 40 ± 2%

Q: And the “% inhibition at 10 uM: ABL1” value [17, 23]?
A: 93 ± 1%

Q: What about the HILLSLOPE ([17]; ABL1, single replicate curves) of the same compound?
A: -3.07 and -2.62 and -3.14

Q: What about the IC50 ([17]; ABL1, single replicate curves, read-out: IC50) of the same compound?
A: 3.57 µM and 3.39 µM and 3.22 µM

Q: What about the IC50 ([17]; radiometric 10-point concentration-response, n = 3, read-out: in vitro biochemical IC50, ABL1) of the same compound?
A: 3.39 µM

Q: What about the inhibition at 10 µM ([17]; read-out: % inhibition at 10 uM: ABL1, 10 μM, Fig 6C median ± standard deviation (n = 2)) of the same compound?
A: > 85%

Q: And the “% inhibition at 10 uM: PEAK1” value ([18]; 10 μM)?
A: 70 ± 1%

Q: And the inhibition at 10 µM ([18]; read-out: % inhibition at 10 uM: PEAK1, 10 μM)?
A: > 70%

Q: What about the “% inhibition at 10 uM: ABL2” value [19, 23] of the same compound?
A: 92 ± 0%

Q: And the HILLSLOPE ([19]; ABL2, single replicate curves)?
A: -2.11 and -2.06 and -1.92

Q: What about the IC50 ([19]; ABL2, single replicate curves, read-out: IC50) of the same compound?
A: 4.57 µM and 4.33 µM and 4.12 µM

Q: And the IC50 ([19]; radiometric 10-point concentration-response, n = 3, read-out: in vitro biochemical IC50, ABL2)?
A: 4.34 µM

Q: And the inhibition at 10 µM ([19]; read-out: % inhibition at 10 uM: ABL2, 10 μM, Fig 6C median ± standard deviation (n = 2))?
A: > 85%

Q: And the IC50 ([20]; radiometric 10-point concentration-response, n = 3, read-out: in vitro biochemical IC50, DDR1)?
A: > 10 µM

Q: What about the inhibition at 10 µM ([20]; read-out: % inhibition at 10 uM: DDR1, 10 μM, Fig 6C median ± standard deviation (n = 2)) of the same compound?
A: 15 ± 1%

Q: What about the “pActivity, HSP90AB1” value [21] of the same compound?
A: 8.09
